Test results reported in paper PMC6958387, “Biological Evaluation of Arylsemicarbazone Derivatives as Potential Anticancer Agents” (Pharmaceuticals, 2019).
Blank lines part the entries; values can stand above or below the compound they belong to.

How the values were obtained:
[1] = tested on: K562, HL-60, MOLT-4, HEp-2, NCI-H292, HT-29 and MCF-7 tumor cell lines; test: Cytotoxic screening against the panel of tumor cell lines (MTT); assay type: cell-based, human; conditions: result in words
Protocol: (§1) The cytotoxicity assessment was performed against three human cancer cell lines in suspension (K562, HL-60 and MOLT-4) and four adhered (HEp-2, NCI-H292, HT-29 and MCF-7).
(§2) The cells were obtained from the Cell Bank of Rio de Janeiro and maintained in the Laboratory of Cell Culture of the Department of Antibiotics of the Federal University of Pernambuco. The lines K562 (myeloblastic leukaemia), HL-60 (promyelocytic leukemia) and MOLT-4 (lymphoblastic leukemia) were cultured in RPMI 1640 medium and the lines HEp-2 (larynx carcinoma), NCI-H292 (lung carcinoma), HT-29 (colon adenocarcinoma) and MCF-7 (breast adenocarcinoma) were cultured in DMEM medium, supplemented with 10% fetal bovine serum, 2 mM glutamine, 100 U/mL penicillin and 100 μg/mL streptomycin (Gibco™ Life Technologies), at 37 °C and 5% CO2.
The evaluation of the cytotoxicity of the compounds was performed by the method of 3-(4,5-dimethyl-2-thiazolyl)-2,5-diphenyl-2H-tetrazolium bromide (MTT) (Sigma Aldrich Co., St. Louis, MO, USA). To perform the assay the cells were seeded in 96-well plates at the following concentrations: HL-60 and K562 (0.3 × 10^6 cells/mL); MOLT-4 and PBMC (10^6 cells/mL); NCI-H292, HT-29, HEp-2 e MCF-7 (10^5 cells/mL). Briefly, the compounds previously dissolved in DMSO (dimethylsulfoxide, Vetec, São Paulo, Brazil), were diluted in medium and added to each well at the desired concentrations. For the calculation of the concentration that inhibits 50% of cell growth (IC50) the compounds were serially diluted to obtain the final concentrations between 0.19–25 μg/mL. Doxorubicin was used as the standard in the concentration range between (0.078–10 μg/mL). After 72 h of contact of the cells with the compounds, it was added to each well 25 μL of MTT solution (5 mg/mL). […] To perform the reading, 100 μL of DMSO was added in each well for the dissolution of the formazan crystals. The amount of formazan was measured by reading the plate at 560 nm absorbance. The IC50 was calculated from the nonlinear regression in the Prisma 7.0 software (GraphPad, San Diego, CA, USA). […]

HL-60 = test: MTT cytotoxicity, 72 h; assay type: cell-based, human; conditions: Homo sapiens, HL-60; MTT, 72 h of incubation
Protocol: as §1, §2
(§3) The evaluation of the cytotoxicity of the compounds was performed by the method of 3-(4,5-dimethyl-2-thiazolyl)-2,5-diphenyl-2H-tetrazolium bromide (MTT) (Sigma Aldrich Co., St. Louis, MO, USA). To perform the assay the cells were seeded in 96-well plates at the following concentrations: HL-60 and K562 (0.3 × 10^6 cells/mL); MOLT-4 and PBMC (10^6 cells/mL); NCI-H292, HT-29, HEp-2 e MCF-7 (10^5 cells/mL). Briefly, the compounds previously dissolved in DMSO (dimethylsulfoxide, Vetec, São Paulo, Brazil), were diluted in medium and added to each well at the desired concentrations. For the calculation of the concentration that inhibits 50% of cell growth (IC50) the compounds were serially diluted to obtain the final concentrations between 0.19–25 μg/mL. Doxorubicin was used as the standard in the concentration range between (0.078–10 μg/mL). After 72 h of contact of the cells with the compounds, it was added to each well 25 μL of MTT solution (5 mg/mL). Plates were left for another 3 h in incubator at 37 °C and at the end of that period the supernatant was aspirated. To perform the reading, 100 μL of DMSO was added in each well for the dissolution of the formazan crystals. The amount of formazan was measured by reading the plate at 560 nm absorbance. The IC50 was calculated from the nonlinear regression in the Prisma 7.0 software (GraphPad, San Diego, CA, USA). Each sample was tested in triplicate in three independent experiments.

K562 = test: MTT cytotoxicity, 72 h; assay type: cell-based, human; conditions: Homo sapiens, K562, 72 h of incubation
Protocol: as §1, §2, §3

MCF-7 = test: MTT cytotoxicity, 72 h; assay type: cell-based, human; conditions: Homo sapiens, MCF7, 72 h of incubation
Protocol: as §1, §2, §3

HT-29 = test: MTT cytotoxicity, 72 h; assay type: cell-based, human; conditions: Homo sapiens, HT-29, 72 h of incubation
Protocol: as §1, §2, §3

HEp-2 = test: MTT cytotoxicity, 72 h; assay type: cell-based, human; conditions: Homo sapiens, HEp-2, 72 h of incubation
Protocol: as §1, §2, §3

NCI-H292 = test: MTT cytotoxicity, 72 h; assay type: cell-based, human; conditions: Homo sapiens, NCI-H292, 72 h of incubation
Protocol: as §1, §2, §3

MOLT-4 = test: MTT cytotoxicity, 72 h; assay type: cell-based, human; conditions: Homo sapiens, MOLT-4, 72 h of incubation
Protocol: as §1, §2, §3

[2] = tested on: Peripheral Blood Mononuclear Cells (PBMCs); test: MTT cytotoxicity in normal cells, 72 h; assay type: cell-based, human; conditions: Homo sapiens, PBMC, 72 h of incubation
Protocol: In order to evaluate the cytotoxic potential in normal cells, all the derivatives were tested against Peripheral Blood Mononuclear Cells (PBMCs) and the most promising compounds were again compounds 3c and 4a, which offered more selectivity against the cancer cells.
Mononuclear cells were obtained from the peripheral blood of healthy volunteers by heparin tube collection and isolated by Ficoll-Histopaque gradient centrifugation. After centrifugation, the cells were harvested, washed and resuspended in RPMI 1640 medium supplemented with 20% fetal bovine serum, 2 mM glutamine, 100 U/mL penicillin and 100 μg/mL streptomycin (Gibco™ Life Technologies, Waltham, MA, USA). The phytohemagglutinin mitogen 2% was also added into the culture medium. After that, using the neubauer chamber, the cells were counted and plated in a 96-well plate at a concentration of 10^6 cells/mL and then were maintained for overnight under incubation at 37 °C and 5% CO2 [65].
as §3

HL-60 cells [3] = test: Annexin V-FITC/7-AAD test, flow cytometry; assay type: cell-based, human; conditions: 0.11 μM, 72 h
Protocol: Aiming to better study the mechanism of induction of death involved in HL-60 cells after treatment with compounds 3c and 4a, a flow cytometric test was performed after double staining with annexin V-FITC/7-AAD. This assay is based on the ability of annexin V to bind with high affinity to phosphatidylserine which is translocated to the outer membrane of apoptotic cells and the 7-AAD dye binds to the DNA of cells with loss of membrane integrity. Thus, in this test it is possible to identify four distinct populations: viable cells [Annexin V(−) and 7-AAD(−)], initial apoptotic cells [Annexin V(+) and 7-AAD(−)], late apoptotic cells [Annexin V(+) and 7-AAD(+)] and dead cells [Annexin V(−) and 7-AAD (+)] [59].
(§4) HL-60 cells (3 × 10^5) were plated in 24-well plates and treated with the compounds 3c (13 and 26 μM) and 4a (11 and 22 μM) for 72 h at 37 °C with 5% CO2. In all trials, doxorubicin was used as a positive control. After the incubation period, an aliquot of 500 μL of treated and untreated cells suspension was transferred to an Eppendorf tube and centrifuged to remove the supernatant and continue the protocol of the test. In the cell viability and annexin V assays, kits were used, ViaCount kit and guava nexin kit (Guava Technologies), respectively. The protocols performed in these tests followed the manufacturer’s instructions. For to analyze mitochondrial depolarization, rhodamine 123 fluorescent dye was used. In the assay for cell cycle analysis and DNA fragmentation propidium iodide was used. The experiments were performed on Guava EasyCyte HT (Merck-Millipore) flow cytometer, acquiring 5000 events. The data were analyzed in Guava-Soft™ software version 2.7. Three independent experiments were performed in triplicate.

HL-60 cells [4] = test: Mitochondrial transmembrane potential (rhodamine 123), flow cytometry; assay type: cell-based, human; conditions: 0.11 μM, 72 h
Protocol: In this sense, in order to evaluate if compounds 3c and 4a induce apoptosis by alterating the mitochondria transmembrane potential, this assay was performed by flow cytometry using the fluorochrome rhodamine 123, because this is able to accumulate in cells with unchanged mitochondrial transmembrane potential.
as §4

melting point: 202 to 204 °C
Compound: NC(=O)N/N=C/c1ccco1 [Compound 3l, 2-Furfuraldehyde Semicarbazone]
antiproliferative activity against the tested cell lines [1]: inactive
IC50 (HL-60): > 100000 nM
IC50 (K562): > 100000 nM
IC50 (MCF-7): > 100000 nM
IC50 (HT-29): > 100000 nM
IC50 (HEp-2): > 100000 nM
IC50 (NCI-H292): > 100000 nM
IC50 (MOLT-4): > 100000 nM
IC50 [2]: > 100000 nM

Compound: COc1cccc2c1C(=O)c1c(O)c3c(c(O)c1C2=O)C[C@@](O)(C(=O)CO)C[C@@H]3O[C@H]1C[C@H](N)[C@H](O)[C@H](C)O1 [Doxo, doxorubicin, reference compound]
IC50 (HL-60): 110 ± 10 nM
IC50 (K562): 1470 ± 90 nM
IC50 (MCF-7): 200 ± 30 nM
IC50 (HT-29): 730 ± 90 nM
IC50 (HEp-2): 1280 ± 110 nM
IC50 (NCI-H292): 180 ± 20 nM
IC50 (MOLT-4): 730 ± 80 nM
IC50 [2]: 5330 ± 620 nM
cells in initial apoptosis [Annexin V(+) and 7-AAD(−)] (HL-60 cells [3]): 23.7%
cells in late apoptosis [Annexin V(+) and 7-AAD(+)] (HL-60 cells [3]): 19%
depolarized cells (HL-60 cells [4]): 41.8%
